Measurements as given in ChEMBL document CHEMBL3734714, “Synthesis and cytostatic activity of 7-arylsulfanyl-7-deazapurine bases and ribonucleosides” (Medchemcomm, 2015).
Calls of active or inactive are those of the source. The rule behind the calls is not given here.

Test system: not listed separately
Test: Cytostatic activity against p53 deficient human HCT116 cells after 3 days by MTT assay
Format: functional, cell-based
Details: HCT-116, 72 h

Compound | IC50
COc1ncnc2[nH]cc(Sc3cccs3)c12 | > 50 µM
Nc1ncnc2c1c(Sc1cccs1)cn2[C@@H]1O[C@H](CO)[C@@H](O)[C@H]1O | 23.2 µM
Cc1ncnc2[nH]cc(Sc3cccs3)c12 | 29.1 µM
c1coc(-c2ncnc3[nH]cc(Sc4cccs4)c23)c1 | 19.5 µM
Nc1ncnc2c1c(Sc1ccccc1)cn2[C@@H]1O[C@H](CO)[C@@H](O)[C@H]1O | 22.4 µM
c1csc(Sc2c[nH]c3ncnc(-c4cccs4)c23)c1 | 5.06 µM
Nc1ncnc2[nH]cc(Sc3cccs3)c12 | > 50 µM
CNc1ncnc2[nH]cc(Sc3cccs3)c12 | 45.3 µM
CN(C)c1ncnc2[nH]cc(Sc3cccs3)c12 | 27.5 µM

Test system: Candida
Test: Antifungal activity against Candida sp.
Format: functional, organism-based
Details: not given

Compound | Activity
COc1ncnc2[nH]cc(Sc3cccs3)c12 | inactive
Nc1ncnc2c1c(Sc1cccs1)cn2[C@@H]1O[C@H](CO)[C@@H](O)[C@H]1O | inactive
Cc1ncnc2[nH]cc(Sc3cccs3)c12 | inactive
c1coc(-c2ncnc3[nH]cc(Sc4cccs4)c23)c1 | inactive
Nc1ncnc2c1c(Sc1ccccc1)cn2[C@@H]1O[C@H](CO)[C@@H](O)[C@H]1O | inactive
c1csc(Sc2c[nH]c3ncnc(-c4cccs4)c23)c1 | inactive
Nc1ncnc2[nH]cc(Sc3cccs3)c12 | inactive
CNc1ncnc2[nH]cc(Sc3cccs3)c12 | inactive
CN(C)c1ncnc2[nH]cc(Sc3cccs3)c12 | inactive

Test system: A549
Test: Cytostatic activity against human A549 cells after 3 days by MTT assay
Format: functional, cell-based
Details: A549, 72 h

Compound | IC50
COc1ncnc2[nH]cc(Sc3cccs3)c12 | 21.5 µM
Nc1ncnc2c1c(Sc1cccs1)cn2[C@@H]1O[C@H](CO)[C@@H](O)[C@H]1O | 43.8 µM
Cc1ncnc2[nH]cc(Sc3cccs3)c12 | > 50 µM
c1coc(-c2ncnc3[nH]cc(Sc4cccs4)c23)c1 | 11.4 µM
Nc1ncnc2c1c(Sc1ccccc1)cn2[C@@H]1O[C@H](CO)[C@@H](O)[C@H]1O | 22.9 µM
c1csc(Sc2c[nH]c3ncnc(-c4cccs4)c23)c1 | 16.2 µM
Nc1ncnc2[nH]cc(Sc3cccs3)c12 | 22.8 µM
CNc1ncnc2[nH]cc(Sc3cccs3)c12 | 28.6 µM
CN(C)c1ncnc2[nH]cc(Sc3cccs3)c12 | 19.8 µM

Test system: HeLa S3
Test: Cytostatic activity against human HeLaS3 cells assessed as cell viability after 6 days by XTT assay
Format: functional, cell-based
Details: HeLa S3, 144 h

Compound | IC50
COc1ncnc2[nH]cc(Sc3cccs3)c12 | 23.9 µM
Nc1ncnc2c1c(Sc1cccs1)cn2[C@@H]1O[C@H](CO)[C@@H](O)[C@H]1O | > 25 µM
Cc1ncnc2[nH]cc(Sc3cccs3)c12 | > 25 µM
c1coc(-c2ncnc3[nH]cc(Sc4cccs4)c23)c1 | 8.49 µM
Nc1ncnc2c1c(Sc1ccccc1)cn2[C@@H]1O[C@H](CO)[C@@H](O)[C@H]1O | > 25 µM
c1csc(Sc2c[nH]c3ncnc(-c4cccs4)c23)c1 | > 25 µM
Nc1ncnc2[nH]cc(Sc3cccs3)c12 | 17.9 µM
CNc1ncnc2[nH]cc(Sc3cccs3)c12 | 17.6 µM
CN(C)c1ncnc2[nH]cc(Sc3cccs3)c12 | > 25 µM

Test system: MRC5
Test: Cytostatic activity against human MRC5 cells after 3 days by MTT assay
Format: ADME, cell-based
Details: MRC5, 72 h

Compound | IC50
COc1ncnc2[nH]cc(Sc3cccs3)c12 | 148 µM
Nc1ncnc2c1c(Sc1cccs1)cn2[C@@H]1O[C@H](CO)[C@@H](O)[C@H]1O | 138 µM
Cc1ncnc2[nH]cc(Sc3cccs3)c12 | 136 µM
c1coc(-c2ncnc3[nH]cc(Sc4cccs4)c23)c1 | 32.9 µM
Nc1ncnc2c1c(Sc1ccccc1)cn2[C@@H]1O[C@H](CO)[C@@H](O)[C@H]1O | 67.7 µM
c1csc(Sc2c[nH]c3ncnc(-c4cccs4)c23)c1 | 54.5 µM
Nc1ncnc2[nH]cc(Sc3cccs3)c12 | 136 µM
CNc1ncnc2[nH]cc(Sc3cccs3)c12 | 148 µM
CN(C)c1ncnc2[nH]cc(Sc3cccs3)c12 | > 150 µM

Test system: HepG2
Test: Cytostatic activity against human HepG2 cells assessed as cell viability after 6 days by XTT assay
Format: functional, cell-based
Details: HepG2, 144 h

Compound | IC50
COc1ncnc2[nH]cc(Sc3cccs3)c12 | > 25 µM
Nc1ncnc2c1c(Sc1cccs1)cn2[C@@H]1O[C@H](CO)[C@@H](O)[C@H]1O | > 25 µM
Cc1ncnc2[nH]cc(Sc3cccs3)c12 | > 25 µM
c1coc(-c2ncnc3[nH]cc(Sc4cccs4)c23)c1 | > 25 µM
Nc1ncnc2c1c(Sc1ccccc1)cn2[C@@H]1O[C@H](CO)[C@@H](O)[C@H]1O | > 25 µM
c1csc(Sc2c[nH]c3ncnc(-c4cccs4)c23)c1 | > 25 µM
Nc1ncnc2[nH]cc(Sc3cccs3)c12 | > 25 µM
CNc1ncnc2[nH]cc(Sc3cccs3)c12 | > 25 µM
CN(C)c1ncnc2[nH]cc(Sc3cccs3)c12 | > 25 µM

Test system: not listed separately
Test: Cytostatic activity against human CEM/DNR cells after 3 days by MTT assay
Format: functional, cell-based
Details: 72 h

Compound | IC50
COc1ncnc2[nH]cc(Sc3cccs3)c12 | > 50 µM
Nc1ncnc2c1c(Sc1cccs1)cn2[C@@H]1O[C@H](CO)[C@@H](O)[C@H]1O | > 100 µM
Cc1ncnc2[nH]cc(Sc3cccs3)c12 | > 50 µM
c1coc(-c2ncnc3[nH]cc(Sc4cccs4)c23)c1 | 20.8 µM
Nc1ncnc2c1c(Sc1ccccc1)cn2[C@@H]1O[C@H](CO)[C@@H](O)[C@H]1O | > 50 µM
c1csc(Sc2c[nH]c3ncnc(-c4cccs4)c23)c1 | 17.7 µM
Nc1ncnc2[nH]cc(Sc3cccs3)c12 | 20.3 µM
CNc1ncnc2[nH]cc(Sc3cccs3)c12 | 26.2 µM
CN(C)c1ncnc2[nH]cc(Sc3cccs3)c12 | 35.2 µM

Test system: not listed separately
Test: Cytostatic activity against human HCT116 cells after 3 days by MTT assay
Format: functional, cell-based
Details: HCT-116, 72 h

Compound | IC50
COc1ncnc2[nH]cc(Sc3cccs3)c12 | 17.2 µM
Nc1ncnc2c1c(Sc1cccs1)cn2[C@@H]1O[C@H](CO)[C@@H](O)[C@H]1O | 36.7 µM
Cc1ncnc2[nH]cc(Sc3cccs3)c12 | 38.1 µM
c1coc(-c2ncnc3[nH]cc(Sc4cccs4)c23)c1 | 6.75 µM
Nc1ncnc2c1c(Sc1ccccc1)cn2[C@@H]1O[C@H](CO)[C@@H](O)[C@H]1O | 20.8 µM
c1csc(Sc2c[nH]c3ncnc(-c4cccs4)c23)c1 | 13 µM
Nc1ncnc2[nH]cc(Sc3cccs3)c12 | 22.8 µM
CNc1ncnc2[nH]cc(Sc3cccs3)c12 | 19 µM
CN(C)c1ncnc2[nH]cc(Sc3cccs3)c12 | 11 µM

Test system: HL-60
Test: Cytostatic activity against human HL60 cells assessed as cell viability after 6 days by XTT assay
Format: functional, cell-based
Details: HL-60, 144 h

Compound | IC50
COc1ncnc2[nH]cc(Sc3cccs3)c12 | > 25 µM
Nc1ncnc2c1c(Sc1cccs1)cn2[C@@H]1O[C@H](CO)[C@@H](O)[C@H]1O | > 25 µM
Cc1ncnc2[nH]cc(Sc3cccs3)c12 | > 25 µM
c1coc(-c2ncnc3[nH]cc(Sc4cccs4)c23)c1 | 7.63 µM
Nc1ncnc2c1c(Sc1ccccc1)cn2[C@@H]1O[C@H](CO)[C@@H](O)[C@H]1O | > 25 µM
c1csc(Sc2c[nH]c3ncnc(-c4cccs4)c23)c1 | 21.1 µM
Nc1ncnc2[nH]cc(Sc3cccs3)c12 | 13.9 µM
CNc1ncnc2[nH]cc(Sc3cccs3)c12 | 13.5 µM
CN(C)c1ncnc2[nH]cc(Sc3cccs3)c12 | > 25 µM

Test system: BJ
Test: Cytostatic activity against human BJ cells after 3 days by MTT assay
Format: ADME, cell-based
Details: 72 h

Compound | IC50
COc1ncnc2[nH]cc(Sc3cccs3)c12 | 123 µM
Nc1ncnc2c1c(Sc1cccs1)cn2[C@@H]1O[C@H](CO)[C@@H](O)[C@H]1O | 93.6 µM
Cc1ncnc2[nH]cc(Sc3cccs3)c12 | > 150 µM
c1coc(-c2ncnc3[nH]cc(Sc4cccs4)c23)c1 | 22.1 µM
Nc1ncnc2c1c(Sc1ccccc1)cn2[C@@H]1O[C@H](CO)[C@@H](O)[C@H]1O | 67.9 µM
c1csc(Sc2c[nH]c3ncnc(-c4cccs4)c23)c1 | 23.4 µM
Nc1ncnc2[nH]cc(Sc3cccs3)c12 | > 150 µM
CNc1ncnc2[nH]cc(Sc3cccs3)c12 | 132 µM
CN(C)c1ncnc2[nH]cc(Sc3cccs3)c12 | 145 µM

Test system: not listed separately
Test: Antiviral activity against RSV
Format: functional, organism-based
Details: not given

Compound | Activity
COc1ncnc2[nH]cc(Sc3cccs3)c12 | inactive
Nc1ncnc2c1c(Sc1cccs1)cn2[C@@H]1O[C@H](CO)[C@@H](O)[C@H]1O | inactive
Cc1ncnc2[nH]cc(Sc3cccs3)c12 | inactive
c1coc(-c2ncnc3[nH]cc(Sc4cccs4)c23)c1 | inactive
Nc1ncnc2c1c(Sc1ccccc1)cn2[C@@H]1O[C@H](CO)[C@@H](O)[C@H]1O | inactive
c1csc(Sc2c[nH]c3ncnc(-c4cccs4)c23)c1 | inactive
Nc1ncnc2[nH]cc(Sc3cccs3)c12 | inactive
CNc1ncnc2[nH]cc(Sc3cccs3)c12 | inactive
CN(C)c1ncnc2[nH]cc(Sc3cccs3)c12 | inactive

Test system: Hepatitis C virus
Test: Antiviral activity against HCV2A
Format: functional, organism-based
Details: Hepacivirus hominis; genotype 2a

Compound | Activity
COc1ncnc2[nH]cc(Sc3cccs3)c12 | inactive
Nc1ncnc2c1c(Sc1cccs1)cn2[C@@H]1O[C@H](CO)[C@@H](O)[C@H]1O | inactive
Cc1ncnc2[nH]cc(Sc3cccs3)c12 | inactive
c1coc(-c2ncnc3[nH]cc(Sc4cccs4)c23)c1 | inactive
Nc1ncnc2c1c(Sc1ccccc1)cn2[C@@H]1O[C@H](CO)[C@@H](O)[C@H]1O | inactive
c1csc(Sc2c[nH]c3ncnc(-c4cccs4)c23)c1 | inactive
Nc1ncnc2[nH]cc(Sc3cccs3)c12 | inactive
CNc1ncnc2[nH]cc(Sc3cccs3)c12 | inactive
CN(C)c1ncnc2[nH]cc(Sc3cccs3)c12 | inactive

Test system: K562
Test: Cytostatic activity against human K562 cells after 3 days by MTT assay
Format: functional, cell-based
Details: K562, 72 h

Compound | IC50
COc1ncnc2[nH]cc(Sc3cccs3)c12 | > 50 µM
Nc1ncnc2c1c(Sc1cccs1)cn2[C@@H]1O[C@H](CO)[C@@H](O)[C@H]1O | 23.4 µM
Cc1ncnc2[nH]cc(Sc3cccs3)c12 | 14 µM
c1coc(-c2ncnc3[nH]cc(Sc4cccs4)c23)c1 | 4.26 µM
Nc1ncnc2c1c(Sc1ccccc1)cn2[C@@H]1O[C@H](CO)[C@@H](O)[C@H]1O | 23.1 µM
c1csc(Sc2c[nH]c3ncnc(-c4cccs4)c23)c1 | 5.14 µM
Nc1ncnc2[nH]cc(Sc3cccs3)c12 | 17.9 µM
CNc1ncnc2[nH]cc(Sc3cccs3)c12 | 4.95 µM
CN(C)c1ncnc2[nH]cc(Sc3cccs3)c12 | 3.83 µM

Test system: Hepatitis C virus
Test: Antiviral activity against HCV1B
Format: functional, organism-based
Details: Hepacivirus hominis; genotype 1b

Compound | Activity
COc1ncnc2[nH]cc(Sc3cccs3)c12 | inactive
Nc1ncnc2c1c(Sc1cccs1)cn2[C@@H]1O[C@H](CO)[C@@H](O)[C@H]1O | inactive
Cc1ncnc2[nH]cc(Sc3cccs3)c12 | inactive
c1coc(-c2ncnc3[nH]cc(Sc4cccs4)c23)c1 | inactive
Nc1ncnc2c1c(Sc1ccccc1)cn2[C@@H]1O[C@H](CO)[C@@H](O)[C@H]1O | inactive
c1csc(Sc2c[nH]c3ncnc(-c4cccs4)c23)c1 | inactive
Nc1ncnc2[nH]cc(Sc3cccs3)c12 | inactive
CNc1ncnc2[nH]cc(Sc3cccs3)c12 | inactive
CN(C)c1ncnc2[nH]cc(Sc3cccs3)c12 | inactive

Test system: not listed separately
Test: Cytostatic activity against human K562-TAX cells after 3 days by MTT assay
Format: functional, cell-based
Details: 72 h

Compound | IC50
COc1ncnc2[nH]cc(Sc3cccs3)c12 | 44 µM
Nc1ncnc2c1c(Sc1cccs1)cn2[C@@H]1O[C@H](CO)[C@@H](O)[C@H]1O | 55.8 µM
Cc1ncnc2[nH]cc(Sc3cccs3)c12 | 64.6 µM
c1coc(-c2ncnc3[nH]cc(Sc4cccs4)c23)c1 | 18.9 µM
Nc1ncnc2c1c(Sc1ccccc1)cn2[C@@H]1O[C@H](CO)[C@@H](O)[C@H]1O | 29.6 µM
c1csc(Sc2c[nH]c3ncnc(-c4cccs4)c23)c1 | 21.7 µM
Nc1ncnc2[nH]cc(Sc3cccs3)c12 | 17.9 µM
CNc1ncnc2[nH]cc(Sc3cccs3)c12 | 21 µM
CN(C)c1ncnc2[nH]cc(Sc3cccs3)c12 | 22.1 µM

Test system: CCRF-CEM
Test: Cytostatic activity against human CCRF-CEM cells after 3 days by MTT assay
Format: functional, cell-based
Details: 72 h

Compound | IC50
COc1ncnc2[nH]cc(Sc3cccs3)c12 | 18.2 µM
Nc1ncnc2c1c(Sc1cccs1)cn2[C@@H]1O[C@H](CO)[C@@H](O)[C@H]1O | 64.7 µM
Cc1ncnc2[nH]cc(Sc3cccs3)c12 | > 50 µM
c1coc(-c2ncnc3[nH]cc(Sc4cccs4)c23)c1 | 7.73 µM
Nc1ncnc2c1c(Sc1ccccc1)cn2[C@@H]1O[C@H](CO)[C@@H](O)[C@H]1O | 34 µM
c1csc(Sc2c[nH]c3ncnc(-c4cccs4)c23)c1 | 10.6 µM
Nc1ncnc2[nH]cc(Sc3cccs3)c12 | 16.7 µM
CNc1ncnc2[nH]cc(Sc3cccs3)c12 | 14.7 µM
CN(C)c1ncnc2[nH]cc(Sc3cccs3)c12 | 14.6 µM
